Measured values published in article PMC7966987, “Insights into the catalytic properties of the mitochondrial rhomboid protease PARL” (The Journal of Biological Chemistry, 2021).
Residues, ends and D or L forms follow the SMILES beside them.

T1: PARLΔ77 (Homo sapiens, UniProt Q9H300)
T1 construct: GFP-hexahistidine (behind a TEV cleavage site) (C, cleaved yes); made in house; host or cells: Pichia pastoris
T1 sequence (Q9H300 78-379): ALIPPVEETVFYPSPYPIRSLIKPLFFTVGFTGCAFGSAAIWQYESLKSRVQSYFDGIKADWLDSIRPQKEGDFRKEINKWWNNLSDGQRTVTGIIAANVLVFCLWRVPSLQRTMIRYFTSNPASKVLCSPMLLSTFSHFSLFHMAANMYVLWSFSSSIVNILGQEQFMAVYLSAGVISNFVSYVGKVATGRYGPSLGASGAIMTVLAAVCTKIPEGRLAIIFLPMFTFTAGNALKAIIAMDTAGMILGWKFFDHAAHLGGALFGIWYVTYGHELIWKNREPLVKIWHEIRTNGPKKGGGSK


What was measured:
PARLΔ77 [1] = target: T1, PARLΔ77; experiment: Competition assay, IQ-PGAM5(20-29) cleavage in presence of PINK1(89-111); format: biochemical; settings: read-out: Ki (Kd represented by Ki of the PARL-PINK1(89-111) complex)
Description: (§1) To determine if substrates bind to the same site, we performed competition binding assays using fluorescent IQ-PGAM5^20–29 and IQ-Smac/Diablo^51–60 as the main substrates and nonfluorescent PINK1^89–111 (^89[…]^111) as a competing substrate (Fig. 4). The longer version of substrate was used in this assay in order to reveal possible exosite interactions of substrate with PARL, assuming that regions surrounding the cleavage site might be involved in a primary substrate binding with a putative exosite.
(§2) Fluorescence detection of each substrate concentration in the presence of corresponding PINK189-111 without enzyme was used as a negative control. Initial velocities were determined for each substrate concentration. Michaelis–Menten plots were subjected to global fit to distinguish the kinetic model and determine the kinetic parameters. Values are represented as mean ± SEM (N = 3). […] The only names printed in the panels are the substrates on the x-axis, and KM and kcat are assigned to them.
(§3) The Michaelis–Menten curves of PARL-mediated cleavage of IQ-PGAM5^20–29 and IQ-Smac/Diablo^51–60 were obtained in the presence of different concentrations of PINK1^89–111.

PARLΔ77 [2] = target: T1, PARLΔ77; experiment: Competition assay, IQ-Smac/Diablo(51-60) cleavage in presence of PINK1(89-111); format: biochemical; settings: read-out: Ki (Kd represented by Ki of the PARL-PINK1(89-111) complex)
Description: as §1, §2, §3

PARLΔ77 [3] = target: T1, PARLΔ77; experiment: Inhibition by commercial serine protease inhibitors, PARLΔ77 in detergent; format: biochemical; settings: 100 μM inhibitor, IQ-PINK1 and IQ-PGAM5 substrates, N=3
Description: We examined whether inhibitors belonging to three standard serine protease inhibitors families—sulfonyl fluoride (PMSF), chloromethyl ketone (TPCK), and coumarin (DCI)—were able to inhibit PARL when tested with IQ-PINK1 and IQ-PGAM5 substrates. […] Overall this supports the view that for PARL, specific inhibitors will need to be developed similar to bacterial rhomboid proteases ([48], [49]). […]
(§4) inhibitors. Bar graphs for percent activity of detergent solubilized (A) and proteoliposome reconstituted (B) PA R L Δ77with100µMofinhibitoradded prior to the addition of IQ-PINK1 and IQ-PGAM5 substrates. Experiments were conducted in duplicate with an N=3.
(§5) Individual data points (black dots) are indicated on the bar graphs, representing the mean […]

PARLΔ77 [4] = target: T1, PARLΔ77; experiment: Inhibition by commercial serine protease inhibitors, PARLΔ77 in proteoliposomes; format: biochemical; settings: 100 μM inhibitor, in PL, IQ-PINK1 and IQ-PGAM5 substrates, N=3
Method: We examined whether inhibitors belonging to three standard serine protease inhibitors families—sulfonyl fluoride (PMSF), chloromethyl ketone (TPCK), and coumarin (DCI)—were able to inhibit PARL when tested with IQ-PINK1 and IQ-PGAM5 substrates. […] Overall this supports the view that for PARL, specific inhibitors will need to be developed similar to bacterial rhomboid proteases ([48], [49]).
The activity assay with PARL reconstituted in PL was performed the same way as for PARL in DDM with the only difference being the activity buffer, where DDM was omitted (50 mM Tris-HCl pH 7.0, 150 mM NaCl, 10% glycerol). For inhibitory studies, PARL in PL (0.8 μM) was incubated with inhibitors (20 μM) in activity buffer for 30 min, and then the proteolytic reaction was started with the addition of substrate (5 μM). […]
as §4, §5

Rhomboid-1 = settings: cited from earlier work
Description: (§6) Rhomboids were initially discovered to be serine proteases because the first identified rhomboid protease from Drosophila, Rhomboid-1, was sensitive to serine protease inhibitors dichloroisocoumarin (DCI) and tosyl phenylalanyl chloromethylketone (TPCK) ([44]).

[5] = tested on: bacterial rhomboid proteases; settings: cited from earlier work
Description: as §6

[6] = target: PARLΔ77 (β-cleavage form of human PARL) (human) (UniProt Q9H300); experiment: competitive inhibition of FRET peptide cleavage (enzyme kinetics); PARLΔ77 0.8 μM; IQ-PGAM5 20-29 (0.13-19 μM) as main substrate; nonfluorescent PINK1 89-111 at 2.5, 5, 10, 20 μM; Michaelis–Menten plots fitted globally, competitive model; Kd represented by Ki
Chain of PARLΔ77 (β-cleavage form of human PARL) (human) (Q9H300 77-379, stated change not applied): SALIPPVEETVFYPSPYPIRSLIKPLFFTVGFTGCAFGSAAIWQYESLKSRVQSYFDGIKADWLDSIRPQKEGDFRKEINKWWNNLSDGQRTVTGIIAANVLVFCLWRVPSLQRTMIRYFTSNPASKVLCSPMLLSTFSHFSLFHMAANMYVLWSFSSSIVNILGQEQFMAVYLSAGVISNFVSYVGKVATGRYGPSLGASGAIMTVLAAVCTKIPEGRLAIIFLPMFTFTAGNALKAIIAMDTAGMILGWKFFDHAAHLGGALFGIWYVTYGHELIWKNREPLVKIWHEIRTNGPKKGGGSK

[7] = target: PARLΔ77 (β-cleavage form of human PARL) (human) (UniProt Q9H300); experiment: competitive inhibition of FRET peptide cleavage (enzyme kinetics); PARLΔ77 0.8 μM; IQ-Smac/Diablo 51-60 (0.3–25 μM) as main substrate; nonfluorescent PINK1 89-111 at 2.5, 5, 10, 20 μM; Michaelis–Menten plots fitted globally, competitive model; Kd represented by Ki

Row | Molecule | inhibition of PARL activity (PARLΔ77 [3]) | inhibition of PARL activity (PARLΔ77 [4]) | inhibition of Drosophila Rhomboid-1 (Rhomboid-1) | further results
1 | CC[C@H](C)[C@H](NC(=O)[C@H](CC(C)C)NC(=O)CNC(=O)[C@H](CC(C)C)NC(=O)CNC(=O)[C@H](CC(C)C)NC(=O)CNC(=O)[C@H](Cc1ccccc1)NC(=O)[C@H](C)NC(=O)[C@H](CC(C)C)NC(=O)[C@H](Cc1ccccc1)NC(=O)[C@@H](NC(=O)[C@H](C)NC(=O)[C@H](CCCNC(=N)N)NC(=O)CNC(=O)[C@H](CS)NC(=O)[C@@H]1CCCN1C(=O)CNC(=O)[C@H](C)NC(=O)[C@H](CS)NC(=O)CNC(=O)[C@H](Cc1c[nH]c2ccccc12)NC(=O)[C@H](C)NC(=O)[C@H](CO)NC(=O)CN)C(C)C)C(=O)O [PINK1^89–111] (H-GSAWGCAGPCGRAVFLAFGLGLGLI-OH) |  |  |  | Ki (PARLΔ77 [1]): 2400 ± 600 nM; Ki (PARLΔ77 [2]): 2300 ± 700 nM
2 | Cc1ccc(S(=O)(=O)N[C@@H](Cc2ccccc2)C(=O)CCl)cc1 [TPCK, tosyl phenylalanyl chloromethylketone] | partially inhibits | partially inhibits | sensitive | 
3 | O=c1oc(Cl)c(Cl)c2ccccc12 [DCI, dichloroisocoumarin] | largest inhibitory effect | largest inhibitory effect | sensitive | 
4 | O=S(=O)(F)Cc1ccccc1 [PMSF] | not inhibited | not inhibited |  | inhibition of bacterial rhomboid proteases [5]: does not act on bacterial rhomboid proteases
5 | AWGCAGPCGRAVFLAFGLGLGLI [PINK1 TM domain (amino acids 89–111), nonfluorescent] |  |  |  | Ki [6]: 2400 nM; Ki [7]: 2300 nM
